According to patent US20090011410A1, “METHOD FOR TAILORING ADMINISTRATION OF DRUGS BY QUANTITATION OF MRNA” (priority 2004, published 2009):

Tests used:
Format in all cases: cell-based, human
p21 mRNA [1] = assay: drug-induced p21 mRNA expression in whole blood of leukemia and lymphoma patients
PUMA mRNA [2] = assay: drug-induced PUMA mRNA expression in whole blood of leukemia and lymphoma patients; conditions: 2 hours at 37° C.; for PUMA response: NHL patient, drug concentrations (FIG. 8C)
PUMA mRNA [3] = assay: drug-induced PUMA mRNA expression in whole blood of healthy adults; conditions: 10 or 100 μM taxol, 2 hours at 37° C., all individuals (FIG. 13)
Description: (§1) In 8-well strip microtubes, 1.4 μl of 50× concentrations of drugs or controls (phosphate buffered saline (PBS) or DMSO) were added, and stored at −20° C. until use. […] Seventy μl of fresh heparinized whole blood was added into each well in triplicate, and incubated at 37° C. for 2-8 hours with the cap closed. For radiation treatment, blood was stimulated at designated doses using cesium-137. After each treatment, 50 μl of whole blood was transferred to filterplates as described below.
(§2) The mRNA and cDNA were prepared from whole blood. In brief, home-made 96-well filterplates were placed over collection plates, and 150 μl 5 mM Tris, pH 7.4, was applied. Following centrifugation at 120×g for 1 min at 4° C., 50 μl of blood samples were applied to each well and immediately centrifuged at 120×g for 2 min at 4° C., followed by washing of each well with 300 μl PBS once with centrifugation at 2000×g for 5 min at 4° C. Then, 60 μl stock lysis buffer, containing for example 0.5% N-Lauroylsarcosine, 4×SSC, 10 mM Tris HCl, pH 7.4, 1 mM EDTA, 0.1% IGEPAL CA-630, and 1.791 M guanidine thiocyanate, supplemented with 1% 2-mercaptoethanol (Bio Rad, Hercules, Calif., USA), 0.5 mg/ml proteinase K (Pierce, Rockford, Ill., USA), 0.1 mg/ml salmon sperm DNA (5 Prime Eppendorf/Brinkmann, Westbury, N.Y., USA), 0.1 mg/ml E. coli tRNA (Sigma), a cocktail of 10 mM each of the specific reverse primers shown in Table 1, and standard RNA34 oligonucleotides, were applied to the filterplates, followed by incubation at 37° C. for 10 min. The filterplates were then placed over oligo(dT)-immobilized microplates (GenePlate, RNAture), and centrifuged at 2000×g for 5 min at 4° C. Following overnight storage at 4° C., the microplates were washed with 100 μl plain lysis buffer 3 times, followed by 150 μl of wash buffer (0.5 M NaCl, 10 mM Tris, pH 7.4, 1 mM EDTA) 3 times at 4° C. The cDNA was directly synthesized in each well by adding 30 μl buffer containing 1×RT-buffer, 1.25 mM each of dNTP, 4 units rRNasin, and 80 units of MMLV reverse transcriptase (Promega) (without primers), and incubation at 37° C. for 2 hours. The specific primer-primed cDNA existed in solution, and oligo(dT)-primed cDNA stayed immobilized in the microplate. For TaqMan PCR (FIGS. 1, 3, 4), the resultant 4 μl cDNA solution was directly transferred to 384-well PCR plates, to which 5 μl of TaqMan universal master mix (ABI) and 1 μl oligonucleotide cocktail (15 μM each of forward and reverse primer, and 3-6 μM TaqMan probe) were applied, and PCR was conducted in PRISM 7900HT (ABI), with one cycle of 95° C. for 10 min followed by 45 cycles of 95° C. for 30 sec, 55° C. for 30 sec, and 60° C. for 1 min. For SYBR Green PCR (see FIG. 6), cDNA was diluted 3-4 fold in water, and 4 μl cDNA solution was directly transferred to 384-well PCR plates, to which 5 μl of a master mix (BioRad, Hercules, Calif.) and 1 μl of oligonucleotide cocktail (15 μM each of forward and reverse primer) were applied, and PCR was conducted in PRISM 7900HT (ABI), with one cycle of 95° C. for 10 min followed by 45 cycles of 95° C. for 30 sec and 60° C. for 1 min. Each gene was amplified in separate wells. The Ct was determined by analytical software (SDS, ABI). Although 1×RT buffer was used as a negative control, none of the primer pairs produced non-specific primer-dimers under these experimental conditions. For PUMA in FIG. 8, immobilized cDNA on the oligo(dT)-immobilized microplates was directly amplified in an iCycler (BioRad).
Quantitation of various mRNAs was conducted using the following method. Triplicate aliquots of 50 μl each of heparinized whole blood was applied to 96-well filterplates to trap leukocytes. The filterplates were placed over collection plates, and 150 μl 5 mM Tris, pH 7.4, was applied. […]

p21 mRNA [4] = assay: drug-induced p21 mRNA expression in whole blood of healthy adults; conditions: 10 or 100 μM taxol, 2 hours at 37° C., all individuals (FIG. 13)
Text: Blood was obtained from healthy adults and from two leukemic non-Hodgkin's malignant lymphoma patients. U937, KG-1, and Jurkat cells were obtained from American Type Culture Collection (ATCC, Manassas, Va.), and maintained in RPMI 1640 supplemented with 10% fetal calf serum. Of these, U937 cells are a human histiocytic lymphoma cell line, KG-1 cells are a human bone marrow myelogenous leukemia cell line, and Jurkat cells are a human T-cell lymphoblast-like, leukemia derived cell line. […] For human experiments, blood aliquots were stimulated with various anti-cancer drugs at 37° C. for 2 hours, then both p21 and BAX mRNA were measured. The anti-cancer drugs used in this study were clinical drugs, and the concentration of each drug was adjusted to typical blood levels 3-6 hours after intravenous administration.
as §2, with “1× RT-butter,” for “1×RT-buffer,”, “ABI).” for “ABI). Although 1×RT buffer was used as a negative control, none of the primer pairs produced non-specific primer-dimers under these experimental conditions. For PUMA in FIG. 8, immobilized cDNA on the oligo(dT)-immobilized microplates was directly amplified in an iCycler (BioRad).”
as §1, with “cesium-137.” for “cesium-137. After each treatment, 50 μl of whole blood was transferred to filterplates as described below.”

BAX mRNA = assay: drug-induced BAX mRNA expression in whole blood of leukemia and lymphoma patients; conditions: drug concentrations (FIG. 3)
Description: The mRNA and cDNA were prepared from whole blood. In brief, home-made 96-well filterplates were placed over collection plates, and 150 μl 5 mM Tris, pH 7.4, was applied. Following centrifugation at 120×g for 1 min at 4° C., 50 μl of blood samples were applied to each well and immediately centrifuged at 120×g for 2 min at 4° C., followed by washing of each well with 300 μl PBS once with centrifugation at 2000×g for 5 min at 4° C. Then, 60 μl stock lysis buffer, containing for example 0.5% N-Lauroylsarcosine, 4×SSC, 10 mM Tris HCl, pH 7.4, 1 mM EDTA, 0.1% IGEPAL CA-630, and 1.791 M guanidine thiocyanate, supplemented with 1% 2-mercaptoethanol (Bio Rad, Hercules, Calif., USA), 0.5 mg/ml proteinase K (Pierce, Rockford, Ill., USA), 0.1 mg/ml salmon sperm DNA (5 Prime Eppendorf/Brinkmann, Westbury, N.Y., USA), 0.1 mg/ml E. coli tRNA (Sigma), a cocktail of 10 mM each of the specific reverse primers shown in Table 1, and standard RNA34 oligonucleotides, were applied to the filterplates, followed by incubation at 37° C. for 10 min. The filterplates were then placed over oligo(dT)-immobilized microplates (GenePlate, RNAture), and centrifuged at 2000×g for 5 min at 4° C. Following overnight storage at 4° C., the microplates were washed with 100 μl plain lysis buffer 3 times, followed by 150 μl of wash buffer (0.5 M NaCl, 10 mM Tris, pH 7.4, 1 mM EDTA) 3 times at 4° C. The cDNA was directly synthesized in each well by adding 30 μl buffer containing 1× RT-butter, 1.25 mM each of dNTP, 4 units rRNasin, and 80 units of MMLV reverse transcriptase (Promega) (without primers), and incubation at 37° C. for 2 hours. The specific primer-primed cDNA existed in solution, and oligo(dT)-primed cDNA stayed immobilized in the microplate. For TaqMan PCR (FIGS. 1, 3, 4), the resultant 4 μl cDNA solution was directly transferred to 384-well PCR plates, to which 5 μl of TaqMan universal master mix (ABI) and 1 μl oligonucleotide cocktail (15 μM each of forward and reverse primer, and 3-6 μM TaqMan probe) were applied, and PCR was conducted in PRISM 7900HT (ABI), with one cycle of 95° C. for 10 min followed by 45 cycles of 95° C. for 30 sec, 55° C. for 30 sec, and 60° C. for 1 min. […] The Ct was determined by analytical software (SDS, ABI).

[5] = CLL patient, drug concentrations of b94 (FIG. 8A)
[6] = leukemic lymphoma patient 2, 2 hours at 37° C., drug concentrations (FIG. 3)
[7] = leukemic lymphoma patient 1, 2 hours at 37° C., drug concentrations (FIG. 3)
[8] = leukemic lymphoma patient 1, 2 hours at 37° C.
[9] = AML patient, drug concentrations of b94 (FIG. 8B)

O=P1(N(CCCl)CCCl)NCCCO1 (stereo not shown) [Endoxan, cyclophosphamide]
p21 mRNA induction (p21 mRNA [1]): induced

COc1cccc2c1C(=O)c1c(O)c3c(c(O)c1C2=O)C[C@@](O)(C(C)=O)C[C@@H]3O[C@H]1C[C@H](N)[C@H](O)[C@H](C)O1 [DNR, daunorubicin]
PUMA induction (PUMA mRNA [2]; [5]): induced

COc1cccc2c1C(=O)c1c(O)c3c(c(O)c1C2=O)C[C@@](O)(C(=O)CO)C[C@@H]3O[C@H]1C[C@H](N)[C@H](O)[C@H](C)O1 [Adriacin, doxorubicin]
p21 mRNA induction (p21 mRNA [1]; [6]): significant p21 mRNA induction

CC(=O)O[C@H]1C(=O)[C@@]2(C)[C@H]([C@H](OC(=O)c3ccccc3)[C@]3(O)C[C@H](OC(=O)[C@H](O)[C@@H](NC(=O)c4ccccc4)c4ccccc4)C(C)=C1C3(C)C)[C@]1(OC(C)=O)CO[C@@H]1C[C@@H]2O [taxol]
PUMA mRNA induction (PUMA mRNA [3]): failed to induce | p21 mRNA induction (p21 mRNA [4]): failed to induce

[NH2][Pt]1([NH2])[O]C(=O)C2(CCC2)C(=O)[O]1 [Paraplatin, carboplatin]
p21 mRNA induction (p21 mRNA [1]; [7]): significant induction | BAX mRNA induction (BAX mRNA; [8]): significant induction

O=C1c2c(O)ccc(O)c2C(=O)c2c(NCCNCCO)ccc(NCCNCCO)c21 [MIT, mitoxantrone]
BAX mRNA induction (BAX mRNA; leukemic lymphoma patient 2, 2 hours at 37° C.): BAX mRNA induction | PUMA induction (PUMA mRNA [2]; [9]): huge induction | PUMA induction (PUMA mRNA [2]; [5]): induced | PUMA response (PUMA mRNA [2]): strong PUMA response

Nc1nc(F)nc2c1ncn2[C@@H]1O[C@H](CO)[C@@H](O)[C@@H]1O [Fludara, fludarabine]
p21 mRNA induction (p21 mRNA [1]; [6]): significant p21 mRNA induction | PUMA induction (PUMA mRNA [2]; [9]): huge induction

COc1cccc2c1C(=O)c1c(O)c3c(c(O)c1C2=O)C[C@@](O)(C(=O)CO)C[C@@H]3O[C@H]1C[C@H](N)[C@H](O[C@@H]2CCCCO2)[C@H](C)O1 [THP, pirarubicin]
p21 mRNA induction (p21 mRNA [1]; [7]): significant induction | BAX mRNA induction (BAX mRNA; [8]): significant induction | PUMA induction (PUMA mRNA [2]; [9]): huge induction | PUMA response (PUMA mRNA [2]): strong PUMA response

Cc1c(N)nc([C@H](CC(N)=O)NC[C@H](N)C(N)=O)nc1C(=O)N[C@H](C(=O)N[C@H](C)[C@@H](O)[C@H](C)C(=O)N[C@H](C(=O)NCCc1nc(-c2nc(C(=O)NCCCN[C@@H](C)c3ccccc3)cs2)cs1)[C@@H](C)O)[C@@H](O[C@@H]1O[C@@H](CO)[C@@H](O)[C@H](O)[C@@H]1O[C@H]1O[C@H](CO)[C@@H](O)[C@H](OC(N)=O)[C@@H]1O)c1c[nH]cn1 [PEP, peplomycin]
PUMA induction (PUMA mRNA [2]; [9]): huge induction

CN(Cc1cnc2nc(N)nc(N)c2n1)c1ccc(C(=O)N[C@@H](CCC(=O)O)C(=O)O)cc1 [MTX, methotrexate]
PUMA induction (PUMA mRNA [2]; [9]): huge induction | PUMA response (PUMA mRNA [2]): strong PUMA response

CC[C@]1(O)C[C@@H]2CN(CCc3c([nH]c4ccccc34)[C@@](C(=O)OC)(c3cc4c(cc3OC)N(C)[C@H]3[C@@](O)(C(=O)OC)[C@H](OC(C)=O)[C@]5(CC)C=CCN6CC[C@]43[C@@H]65)C2)C1 [VLB, vinblastine]
p21 induction (p21 mRNA [1]; AML patient, 2 hours at 37° C., drug concentrations of b94 (FIG. 8B)): significant p21 induction

[NH2][Pt]([NH2])([Cl])[Cl] [CDDP, cisplatin]
PUMA induction (PUMA mRNA [2]; [9]): huge induction
